Source: ChEMBL document CHEMBL1743201, “Casarett and Doull's Toxicology The Basic Science of Poisons, 7th edition” (2008)

Columns and labels:
Type in all cases: ADME
Sulfotransferase 2B1 [1] = target: T1, Sulfotransferase 2B1 (Homo sapiens, UniProt O00204); assay: Major substrate of human cytosolic sulfotransferase SULT2B1_v2
T1 sequence (O00204 whole entry): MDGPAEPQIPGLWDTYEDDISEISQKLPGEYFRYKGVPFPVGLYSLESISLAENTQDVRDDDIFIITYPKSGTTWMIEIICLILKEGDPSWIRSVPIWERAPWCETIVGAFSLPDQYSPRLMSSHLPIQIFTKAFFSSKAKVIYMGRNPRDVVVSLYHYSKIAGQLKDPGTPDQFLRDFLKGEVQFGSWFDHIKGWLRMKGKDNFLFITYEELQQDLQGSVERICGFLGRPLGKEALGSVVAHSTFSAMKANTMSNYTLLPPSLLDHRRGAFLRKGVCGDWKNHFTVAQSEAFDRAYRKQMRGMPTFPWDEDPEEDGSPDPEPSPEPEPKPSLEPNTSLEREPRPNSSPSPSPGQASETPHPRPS

[2] = target: Glutathione S-transferase omega-1 (Homo sapiens, UniProt P78417); assay: Substrates for human cytosolic glutathione transferase GSTO1
Chain of Glutathione S-transferase omega-1 (P78417 whole entry): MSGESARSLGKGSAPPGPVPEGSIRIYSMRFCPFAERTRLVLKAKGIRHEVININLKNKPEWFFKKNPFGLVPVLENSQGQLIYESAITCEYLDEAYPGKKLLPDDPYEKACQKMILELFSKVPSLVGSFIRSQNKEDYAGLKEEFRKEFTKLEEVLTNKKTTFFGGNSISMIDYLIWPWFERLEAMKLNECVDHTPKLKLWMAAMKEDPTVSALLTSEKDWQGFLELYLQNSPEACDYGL

[3] = target: Glutathione S-transferase omega-2 (Homo sapiens, UniProt Q9H4Y5); assay: Substrates for human cytosolic glutathione transferase GSTO2
Chain of Glutathione S-transferase omega-2 (Q9H4Y5 whole entry): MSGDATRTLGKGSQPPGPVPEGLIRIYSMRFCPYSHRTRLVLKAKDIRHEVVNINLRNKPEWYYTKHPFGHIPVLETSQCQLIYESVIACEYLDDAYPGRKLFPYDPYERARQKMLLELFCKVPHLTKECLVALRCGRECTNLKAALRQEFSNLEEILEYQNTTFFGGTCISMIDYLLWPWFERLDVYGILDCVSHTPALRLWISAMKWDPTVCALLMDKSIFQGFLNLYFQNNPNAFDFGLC

[4] = target: T2, Glutathione S-transferase kappa 1 (Homo sapiens, UniProt Q9Y2Q3); assay: Substrates for human mitochondrial glutathione transferase GSTK1
T2 sequence (Q9Y2Q3 whole entry): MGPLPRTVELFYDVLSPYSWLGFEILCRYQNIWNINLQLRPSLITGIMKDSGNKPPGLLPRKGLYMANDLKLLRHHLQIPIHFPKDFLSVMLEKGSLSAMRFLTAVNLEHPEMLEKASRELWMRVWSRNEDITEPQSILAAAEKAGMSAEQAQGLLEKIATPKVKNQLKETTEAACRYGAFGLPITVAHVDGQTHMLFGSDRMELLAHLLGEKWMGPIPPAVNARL

[5] = target: Glutathione S-transferase Mu 4 (Homo sapiens, UniProt Q03013); assay: Substrates for human cytosolic glutathione transferase GSTM4
Chain of Glutathione S-transferase Mu 4 (Q03013 whole entry): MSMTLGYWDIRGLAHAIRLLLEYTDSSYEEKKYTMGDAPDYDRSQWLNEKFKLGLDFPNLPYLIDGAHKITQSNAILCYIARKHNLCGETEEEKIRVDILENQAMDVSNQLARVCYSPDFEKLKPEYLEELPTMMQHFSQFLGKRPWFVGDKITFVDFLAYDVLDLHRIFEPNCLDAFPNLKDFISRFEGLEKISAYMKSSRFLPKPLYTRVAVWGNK

[6] = target: Glutathione S-transferase Mu 5 (Homo sapiens, UniProt P46439); assay: Substrates for human cytosolic glutathione transferase GSTM5
Chain of Glutathione S-transferase Mu 5 (P46439 whole entry): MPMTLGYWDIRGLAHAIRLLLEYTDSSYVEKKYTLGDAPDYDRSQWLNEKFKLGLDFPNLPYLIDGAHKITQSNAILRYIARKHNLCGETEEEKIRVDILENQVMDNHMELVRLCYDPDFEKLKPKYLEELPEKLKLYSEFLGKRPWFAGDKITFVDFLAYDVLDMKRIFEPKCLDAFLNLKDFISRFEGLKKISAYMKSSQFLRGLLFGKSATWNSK

[7] = target: T3, Microsomal glutathione S-transferase 1 (Homo sapiens, UniProt P10620); assay: Substrates for human microsomal glutathione transferase MGST1
T3 sequence (P10620 whole entry): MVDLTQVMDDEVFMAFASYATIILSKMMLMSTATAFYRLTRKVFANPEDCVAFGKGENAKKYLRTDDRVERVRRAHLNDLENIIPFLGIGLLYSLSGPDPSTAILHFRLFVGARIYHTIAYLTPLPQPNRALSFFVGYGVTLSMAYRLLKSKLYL

[8] = target: Microsomal glutathione S-transferase 2 (Homo sapiens, UniProt Q99735); assay: Substrates for human microsomal glutathione transferase MGST2
Chain of Microsomal glutathione S-transferase 2 (Q99735 whole entry): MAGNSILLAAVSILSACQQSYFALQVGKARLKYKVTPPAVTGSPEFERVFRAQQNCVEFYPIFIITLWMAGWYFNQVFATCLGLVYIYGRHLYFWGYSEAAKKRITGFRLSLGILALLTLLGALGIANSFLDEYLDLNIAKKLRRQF

[9] = target: Glutathione S-transferase 3, mitochondrial (Homo sapiens, UniProt O14880); assay: Substrates for human microsomal glutathione transferase MGST3
Chain of Glutathione S-transferase 3, mitochondrial (O14880 whole entry): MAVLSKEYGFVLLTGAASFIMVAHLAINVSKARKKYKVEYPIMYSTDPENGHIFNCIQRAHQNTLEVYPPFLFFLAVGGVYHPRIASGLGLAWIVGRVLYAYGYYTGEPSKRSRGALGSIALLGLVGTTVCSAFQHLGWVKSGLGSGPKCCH

Sulfotransferase 1E1 = target: T4, Sulfotransferase 1E1 (Homo sapiens, UniProt P49888); assay: Major substrate of human cytosolic sulfotransferase SULT1E1
T4 sequence (P49888 whole entry): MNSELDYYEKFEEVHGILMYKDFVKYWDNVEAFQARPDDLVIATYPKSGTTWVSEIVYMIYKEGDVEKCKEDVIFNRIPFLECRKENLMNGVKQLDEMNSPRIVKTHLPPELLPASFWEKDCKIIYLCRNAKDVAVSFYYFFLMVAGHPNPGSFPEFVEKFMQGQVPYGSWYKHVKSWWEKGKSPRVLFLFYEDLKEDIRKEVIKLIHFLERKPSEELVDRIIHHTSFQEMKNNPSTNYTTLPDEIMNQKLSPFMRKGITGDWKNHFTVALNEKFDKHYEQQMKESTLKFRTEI

Sulfotransferase 2A1 = target: T5, Sulfotransferase 2A1 (Homo sapiens, UniProt Q06520); assay: Major substrate of human cytosolic sulfotransferase SULT2A1
T5 sequence (Q06520 whole entry): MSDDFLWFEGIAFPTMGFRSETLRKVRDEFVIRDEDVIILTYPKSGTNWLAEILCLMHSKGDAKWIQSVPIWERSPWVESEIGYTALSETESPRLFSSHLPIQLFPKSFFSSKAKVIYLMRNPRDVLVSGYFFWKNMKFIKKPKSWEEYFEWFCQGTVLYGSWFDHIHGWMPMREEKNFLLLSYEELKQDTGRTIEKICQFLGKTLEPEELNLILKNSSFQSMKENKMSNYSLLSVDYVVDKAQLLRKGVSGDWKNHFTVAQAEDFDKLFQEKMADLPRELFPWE

Sulfotransferase 1A1 = Sulfotransferase 1A1 (Homo sapiens, UniProt P50225); assay: Major substrate of human cytosolic sulfotransferase SULT1A1
Chain of Sulfotransferase 1A1 (P50225 whole entry): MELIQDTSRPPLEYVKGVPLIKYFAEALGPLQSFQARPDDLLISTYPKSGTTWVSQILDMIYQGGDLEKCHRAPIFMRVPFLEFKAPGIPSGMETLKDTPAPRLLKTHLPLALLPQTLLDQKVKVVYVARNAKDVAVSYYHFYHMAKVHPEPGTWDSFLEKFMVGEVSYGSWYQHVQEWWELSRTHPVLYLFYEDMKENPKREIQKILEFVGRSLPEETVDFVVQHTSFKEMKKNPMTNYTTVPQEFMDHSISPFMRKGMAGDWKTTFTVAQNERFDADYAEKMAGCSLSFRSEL

[10] = target: T6, UDP-glucuronosyltransferase 1A3 (Homo sapiens, UniProt P35503); assay: Substrate of human UDP-glucuronosyltransferase UGT1A3
T6 sequence (P35503 whole entry): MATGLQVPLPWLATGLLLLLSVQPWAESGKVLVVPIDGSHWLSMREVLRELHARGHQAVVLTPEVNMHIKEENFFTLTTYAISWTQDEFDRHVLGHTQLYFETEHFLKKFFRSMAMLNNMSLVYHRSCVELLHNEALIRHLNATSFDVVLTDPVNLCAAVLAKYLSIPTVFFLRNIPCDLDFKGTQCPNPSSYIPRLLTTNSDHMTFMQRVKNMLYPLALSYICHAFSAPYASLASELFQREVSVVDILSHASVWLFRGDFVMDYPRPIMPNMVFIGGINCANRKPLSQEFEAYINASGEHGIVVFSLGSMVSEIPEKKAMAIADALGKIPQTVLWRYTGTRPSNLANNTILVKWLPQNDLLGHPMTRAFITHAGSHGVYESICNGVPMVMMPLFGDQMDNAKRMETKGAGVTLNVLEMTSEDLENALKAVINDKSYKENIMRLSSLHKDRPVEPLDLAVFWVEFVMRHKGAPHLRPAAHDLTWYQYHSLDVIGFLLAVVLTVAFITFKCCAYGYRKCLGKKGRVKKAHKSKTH

[11] = target: UDP-glucuronosyltransferase 2B28 (Homo sapiens, UniProt Q9BY64); assay: Substrate of human UDP-glucuronosyltransferase UGT2B28
Chain of UDP-glucuronosyltransferase 2B28 (Q9BY64 whole entry): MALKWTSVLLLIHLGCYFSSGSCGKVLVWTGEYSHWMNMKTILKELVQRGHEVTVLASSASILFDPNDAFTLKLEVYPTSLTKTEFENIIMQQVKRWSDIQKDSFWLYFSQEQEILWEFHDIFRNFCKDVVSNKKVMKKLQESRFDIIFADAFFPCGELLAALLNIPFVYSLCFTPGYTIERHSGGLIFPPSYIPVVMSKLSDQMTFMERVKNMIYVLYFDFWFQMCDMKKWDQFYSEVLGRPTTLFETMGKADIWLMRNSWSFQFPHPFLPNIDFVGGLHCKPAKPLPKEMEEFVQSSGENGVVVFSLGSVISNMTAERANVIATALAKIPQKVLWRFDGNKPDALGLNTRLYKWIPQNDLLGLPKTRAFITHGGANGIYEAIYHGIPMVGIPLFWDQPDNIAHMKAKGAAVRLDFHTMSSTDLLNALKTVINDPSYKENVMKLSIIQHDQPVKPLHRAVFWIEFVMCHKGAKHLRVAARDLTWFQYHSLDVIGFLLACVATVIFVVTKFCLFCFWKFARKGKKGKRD

[12] = target: T7, UDP-glucuronosyltransferase 1A6 (Homo sapiens, UniProt P19224); assay: Substrate of human UDP-glucuronosyltransferase UGT1A6
T7 sequence (P19224 whole entry): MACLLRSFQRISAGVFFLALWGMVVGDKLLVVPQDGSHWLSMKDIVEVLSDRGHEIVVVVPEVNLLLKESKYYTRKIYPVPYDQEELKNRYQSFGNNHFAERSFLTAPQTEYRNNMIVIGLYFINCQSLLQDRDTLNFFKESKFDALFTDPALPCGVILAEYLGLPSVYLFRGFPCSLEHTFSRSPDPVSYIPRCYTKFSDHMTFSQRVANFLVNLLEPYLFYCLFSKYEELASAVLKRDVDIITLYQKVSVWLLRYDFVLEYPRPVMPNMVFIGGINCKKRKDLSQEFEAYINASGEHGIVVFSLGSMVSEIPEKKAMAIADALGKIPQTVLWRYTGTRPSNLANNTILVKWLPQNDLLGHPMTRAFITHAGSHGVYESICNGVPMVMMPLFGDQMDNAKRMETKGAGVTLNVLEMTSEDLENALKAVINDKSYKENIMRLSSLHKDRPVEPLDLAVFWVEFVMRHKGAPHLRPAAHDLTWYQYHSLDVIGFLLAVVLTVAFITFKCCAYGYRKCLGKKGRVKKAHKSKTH

[13] = target: T8, UDP-glucuronosyltransferase 1A9 (Homo sapiens, UniProt O60656); assay: Substrate of human UDP-glucuronosyltransferase UGT1A9
T8 sequence (O60656 whole entry): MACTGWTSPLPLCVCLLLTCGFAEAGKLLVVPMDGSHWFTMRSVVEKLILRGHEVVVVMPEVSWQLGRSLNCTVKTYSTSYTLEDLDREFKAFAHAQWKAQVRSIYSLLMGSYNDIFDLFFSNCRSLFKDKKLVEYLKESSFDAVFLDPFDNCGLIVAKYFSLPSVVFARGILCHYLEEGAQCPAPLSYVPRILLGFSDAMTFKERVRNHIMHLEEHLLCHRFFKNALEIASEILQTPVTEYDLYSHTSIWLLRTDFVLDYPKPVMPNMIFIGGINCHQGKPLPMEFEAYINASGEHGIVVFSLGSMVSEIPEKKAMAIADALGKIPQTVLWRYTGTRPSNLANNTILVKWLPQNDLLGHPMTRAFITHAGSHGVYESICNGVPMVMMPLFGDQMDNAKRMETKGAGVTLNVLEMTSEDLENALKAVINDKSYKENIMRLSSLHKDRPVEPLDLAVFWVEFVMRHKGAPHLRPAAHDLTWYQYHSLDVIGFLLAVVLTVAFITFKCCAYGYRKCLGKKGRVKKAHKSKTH

[14] = target: UDP-glucuronosyltransferase 2A1 (Homo sapiens, UniProt P0DTE4); assay: Substrate of human UDP-glucuronosyltransferase UGT2A1
Chain of UDP-glucuronosyltransferase 2A1 (P0DTE4 whole entry): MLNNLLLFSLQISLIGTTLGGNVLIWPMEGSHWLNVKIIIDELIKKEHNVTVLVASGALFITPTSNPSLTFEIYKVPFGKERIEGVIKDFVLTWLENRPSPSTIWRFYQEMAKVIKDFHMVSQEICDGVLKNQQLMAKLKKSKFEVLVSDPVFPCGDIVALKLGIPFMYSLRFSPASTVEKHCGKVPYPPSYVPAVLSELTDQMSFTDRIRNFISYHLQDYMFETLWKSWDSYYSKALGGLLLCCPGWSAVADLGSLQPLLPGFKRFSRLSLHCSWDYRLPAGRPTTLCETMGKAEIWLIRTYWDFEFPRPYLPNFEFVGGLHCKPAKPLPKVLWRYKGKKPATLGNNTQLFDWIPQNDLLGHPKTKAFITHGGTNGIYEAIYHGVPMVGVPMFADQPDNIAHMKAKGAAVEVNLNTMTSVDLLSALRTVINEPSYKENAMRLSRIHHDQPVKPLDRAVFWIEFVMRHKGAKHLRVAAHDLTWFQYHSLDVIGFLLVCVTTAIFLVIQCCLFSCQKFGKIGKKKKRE

[15] = target: T9, UDP-glucuronosyltransferase 2B7 (Homo sapiens, UniProt P16662); assay: Substrate of human UDP-glucuronosyltransferase UGT2B7
T9 sequence (P16662 whole entry): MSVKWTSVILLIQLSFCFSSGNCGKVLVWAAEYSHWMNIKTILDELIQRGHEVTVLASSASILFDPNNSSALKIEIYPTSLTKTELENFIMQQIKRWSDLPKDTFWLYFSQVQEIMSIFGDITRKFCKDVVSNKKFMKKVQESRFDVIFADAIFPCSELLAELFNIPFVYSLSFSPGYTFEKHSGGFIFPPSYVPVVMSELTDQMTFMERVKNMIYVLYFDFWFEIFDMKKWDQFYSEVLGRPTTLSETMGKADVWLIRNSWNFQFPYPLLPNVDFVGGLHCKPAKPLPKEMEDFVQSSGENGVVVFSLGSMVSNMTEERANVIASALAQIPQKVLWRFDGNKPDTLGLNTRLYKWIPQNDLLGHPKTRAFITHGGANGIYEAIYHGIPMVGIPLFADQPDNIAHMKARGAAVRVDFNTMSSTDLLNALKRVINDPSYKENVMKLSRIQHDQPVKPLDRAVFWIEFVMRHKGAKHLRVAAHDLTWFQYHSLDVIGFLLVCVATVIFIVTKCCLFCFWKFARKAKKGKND

[16] = target: T10, UDP-glucuronosyltransferase 2B17 (Homo sapiens, UniProt O75795); assay: Substrate of human UDP-glucuronosyltransferase UGT2B17
T10 sequence (O75795 whole entry): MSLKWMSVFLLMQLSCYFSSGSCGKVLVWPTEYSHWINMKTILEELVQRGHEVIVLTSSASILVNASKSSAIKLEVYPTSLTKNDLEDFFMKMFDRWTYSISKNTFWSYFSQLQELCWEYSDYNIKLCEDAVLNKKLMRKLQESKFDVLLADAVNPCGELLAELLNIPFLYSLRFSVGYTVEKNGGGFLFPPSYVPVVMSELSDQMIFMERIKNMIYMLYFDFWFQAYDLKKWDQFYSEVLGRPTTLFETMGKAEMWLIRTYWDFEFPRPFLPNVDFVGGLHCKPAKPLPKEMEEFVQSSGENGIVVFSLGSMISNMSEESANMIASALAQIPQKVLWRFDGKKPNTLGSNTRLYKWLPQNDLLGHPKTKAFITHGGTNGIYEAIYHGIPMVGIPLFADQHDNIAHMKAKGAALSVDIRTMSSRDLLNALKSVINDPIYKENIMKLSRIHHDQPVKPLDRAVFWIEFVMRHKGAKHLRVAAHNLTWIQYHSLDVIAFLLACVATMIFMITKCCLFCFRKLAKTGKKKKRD

Sulfotransferase 2B1 [17] = target: T1, Sulfotransferase 2B1; assay: Major substrate of human cytosolic sulfotransferase SULT2B1_v1
[18] = target: T11, UDP-glucuronosyltransferase 1A8 (Homo sapiens, UniProt Q9HAW9); assay: Substrate of human UDP-glucuronosyltransferase UGT1A8
T11 sequence (Q9HAW9 whole entry): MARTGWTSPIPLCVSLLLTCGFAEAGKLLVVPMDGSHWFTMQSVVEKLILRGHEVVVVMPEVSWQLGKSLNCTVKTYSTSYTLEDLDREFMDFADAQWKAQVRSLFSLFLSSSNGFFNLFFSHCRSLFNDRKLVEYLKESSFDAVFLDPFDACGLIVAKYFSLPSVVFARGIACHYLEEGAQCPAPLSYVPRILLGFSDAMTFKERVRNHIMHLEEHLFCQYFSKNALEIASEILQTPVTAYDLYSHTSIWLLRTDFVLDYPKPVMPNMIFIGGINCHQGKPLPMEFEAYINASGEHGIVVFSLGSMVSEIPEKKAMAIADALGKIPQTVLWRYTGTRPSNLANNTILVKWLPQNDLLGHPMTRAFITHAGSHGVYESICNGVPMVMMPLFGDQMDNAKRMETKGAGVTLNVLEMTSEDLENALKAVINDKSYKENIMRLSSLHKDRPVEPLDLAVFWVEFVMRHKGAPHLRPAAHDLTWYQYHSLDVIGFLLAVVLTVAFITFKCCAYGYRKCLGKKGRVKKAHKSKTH

Measured: Activity

CC(C)CCC[C@@H](C)[C@H]1CC[C@H]2[C@@H]3CC=C4C[C@@H](O)CC[C@]4(C)[C@H]3CC[C@]12C [CHOLESTEROL]
Substrate: Sulfotransferase 2B1 [1]

O=C1OC(C(O)CO)C(=O)C1=O (stereo not drawn) [DEHYDROASCORBIC ACID]
Substrate: [2] | [3]

O=[N+]([O-])c1ccc(Cl)c([N+](=O)[O-])c1 [DINITROCHLOROBENZENE]
Substrate: [4] | [5] | [6] | [7] | [8] | [9]

C[C@]12CC[C@@H]3c4ccc(O)cc4CC[C@H]3[C@@H]1CC[C@@H]2O [ESTRADIOL]
Substrate: Sulfotransferase 1E1 | Sulfotransferase 2A1 | Sulfotransferase 1A1 | [10] | [11]

CC(C)Cc1ccc(C(C)C(=O)O)cc1 (stereo not drawn) [IBUPROFEN]
Substrate: [10] | [12] | [13] | [14] | [15] | [16]

C[C@]12CC[C@H](O)CC1=CC[C@@H]1[C@@H]2CC[C@]2(C)C(=O)CC[C@@H]12 [PRASTERONE]
Substrate: Sulfotransferase 1E1 | Sulfotransferase 2A1 | Sulfotransferase 2B1 [17] | Sulfotransferase 2B1 [1]

CC(=O)[C@H]1CC[C@H]2[C@@H]3CC=C4C[C@@H](O)CC[C@]4(C)[C@H]3CC[C@]12C [PREGNENOLONE]
Substrate: Sulfotransferase 1E1 | Sulfotransferase 2A1 | Sulfotransferase 2B1 [17]

C[C@]12CC[C@H]3[C@@H](CCC4=CC(=O)CC[C@@]43C)[C@@H]1CC[C@@H]2O [TESTOSTERONE]
Substrate: Sulfotransferase 2A1 | [11]

CCCC(CCC)C(=O)O [VALPROIC ACID]
Substrate: [10] | [18] | [14] | [15]
